Values quoted from earlier work, collected in US20160235072A1, “ANTIMICROBIAL POLYMER CONCENTRATES AND COMPOUNDS” (POLYONE CORPORATION, priority 2013, published 2016).

System: pathogens from the Streptococcus and Staphylococcus genera

Question: Which effectiveness against pathogens does the source give for Zinc pyrithione here?
Answer: effective against many pathogens
